Results: publication PMC5064907, “Tissue expression and antibacterial activity of host defense peptides in chicken” (BMC Veterinary Research, 2016)
Read-outs that look alike come from different tables or passages of the source. Residues, ends and D or L forms follow the SMILES beside them. No end group written: not given here.

Columns and labels:
[1] = test system: Escherichia coli ATCC 25922; type: cell-based; settings: for Antibacterial activity over the tested concentrations: 0.5, 1, 2.5 and 5 μM peptide, Fig. 2b; for Antibacterial activity over the tested concentrations / Killing activity among tested HDPs at less than 5 μM: 2 h; for Antibacterial activity over the tested concentrations / Antibacterial (lytic) activity against E.coli at 5 μM: 37 °C; for Bacteria killed at 0.5 μM: ATCC 25922, 2 h; for Efficiency in reducing E. coli cell viability and damaging cell membranes (comparison among the CATHs): discussion summary of the viability and membrane damage data; for Relative antibacterial effect among all tested chicken HDPs / Killing activity among tested HDPs at less than 5 μM: E. coli; for Relative antibacterial effect among all tested chicken HDPs: under test conditions (0.5-5 μM, 2 h); for Antibacterial (lytic) activity against E.coli at 5 μM: 5 μM peptide, 6 × 10^6 CFU/ml E. coli ATCC 25922, 2 h, luminescence, Fig. 2a; for Killing activity among tested HDPs at less than 5 μM: less than 5 μM peptide
Procedure: Gram-negative bacteria, Escherichia coli ATCC 25922, were purchased from Korean Collection for Type Culture and tested against each peptide. Cell viability analysis was carried out as previously reported. Briefly, 6 × 10^6 colony–forming units (CFU)/ml bacteria suspensions (90 μl) were placed into 96 well plates, followed by the addition of 10 μl of serial diluted peptide (final 0, 0.5, 1, 2.5, 5 μM) in triplicate. After 2 h incubation at 37 °C, equal volume of BacTiter-Glo™ Reagent (Promega) was added, and incubated for 5 min after which luminescence was measured with GloMax-Multi Detection System (Promega).
E. coli (6 × 10^6) were incubated with indicated amounts of peptide for 2 h and cell viability was compared to untreated cells. […] Each bar represents the mean ± S.D. value of at least three independent experiments. Non-treated cell considered as 100 % cell viability and peptides treated cell viability was compared and calculated in percentile. *** indicate p ≤ 0.001, ** indicate p ≤ 0.01 and * indicate p ≤ 0.05

E. coli = assay: Detection of damaged E. coli membranes, LIVE/DEAD BacLight staining, confocal laser scanning microscopy; type: cell-based, Escherichia coli; settings: 5 μM peptide, 6.5 × 10^6 CFU E. coli, 10 mM phosphate buffer pH 7.0, 37 °C, 2 h
Procedure: Fig. 3 Escherichia coli viability and membrane damage following treatment with cathelicidins. Membrane damage in E. coli treated with each synthetic cathelicidin peptide (5 μM) was detected with a LIVE/DEAD BacLight Bacterial Viability Kit. Green fluorescence indicates live bacteria with intact membranes; red fluorescence indicates dead bacteria with damaged membranes.

E.coli = settings: previous report; cited from earlier work
Excerpt: Even though many tested chicken HDPs show varying efficiencies against pathogens, the majority kill bacteria at low concentration. […] These four peptides have very low net charge from 0.1 to 1.8. AvBD4 has 24 % hydrophobicity with 5.8 net charge and can kill bacteria very well compared to AvBD5, -8 and -13 that have the same hydrophobicity but lower cationicity of 0.1 to […].

| Compound | Antibacterial activity over the tested concentrations [1] | Antibacterial (lytic) activity against E.coli at 5 μM [1] | Killing activity among tested HDPs at less than 5 μM [1] | other results |
| --- | --- | --- | --- | --- |
| TATQCRIRGGFCRVGSCRFPHIAIGKCATFISCCGR [AvBD3, synthetic linear peptide corresponding to chicken avian β-defensin 3] | kill effectively over all tested concentrations |  |  |  |
| CC[C@H](C)[C@H](NC(=O)CNC(=O)[C@H](CC(N)=O)NC(=O)[C@H](CC(N)=O)NC(=O)[C@H](CS)NC(=O)[C@@H](NC(=O)CNC(=O)[C@@H](NC(=O)[C@H](Cc1c[nH]c2ccccc12)NC(=O)[C@H](Cc1ccc(O)cc1)NC(=O)[C@H](Cc1ccc(O)cc1)NC(=O)[C@@H]1CCCN1C(=O)[C@H](CCCNC(=N)N)NC(=O)[C@H](CCCNC(=N)N)NC(=O)[C@H](CS)NC(=O)[C@@H](NC(=O)CNC(=O)[C@@H]1CCCN1C(=O)[C@H](Cc1ccccc1)NC(=O)[C@H](CS)NC(=O)[C@H](CC(C)C)NC(=O)CNC(=O)[C@H](CC(N)=O)NC(=O)[C@H](CCCNC(=N)N)NC(=O)[C@H](CC(C)C)NC(=O)[C@H](CCCNC(=N)N)NC(=O)[C@H](CS)NC(=O)[C@@H](NC(=O)[C@H](CC(=O)O)NC(=O)[C@@H](NC(=O)[C@@H]1CCCN1C(=O)[C@@H](N)CCCNC(=N)N)[C@@H](C)CC)[C@@H](C)O)[C@@H](C)CC)[C@@H](C)CC)[C@@H](C)O)C(=O)NCC(=O)N[C@@H](CO)C(=O)N[C@@H](CS)C(=O)N[C@@H](CS)C(=O)N[C@@H](C)C(=O)N[C@@H](CCCNC(=N)N)C(=O)O [AvBD7] (H-RPIDTCRLRNGLCFPGICRRPYYWIGTCNNGIGSCCAR-OH; N-terminus and C-terminus assumed) | very strong antibacterial activity at all concentration |  |  |  |
| PVLVQRGRFGRFLRKIRRFRPKVTITIQGSARFG [CATH2] | very strong antibacterial activity at all concentration |  |  | Bacteria killed at 0.5 μM [1]: 50%; Efficiency in reducing E. coli cell viability and damaging cell membranes (comparison among the CATHs) [1]: highest efficiency; E. coli membrane damage (red fluorescence, LIVE/DEAD BacLight) (E. coli): greater with CATH2 or CATH3 than with CATH1 or CATHB1 |
| CSCC[C@H](NC(=O)[C@H](Cc1c[nH]cn1)NC(=O)[C@H](Cc1ccc(O)cc1)NC(=O)[C@@H](N)CCCNC(=N)N)C(=O)N[C@@H](CCC(N)=O)C(=O)N[C@@H](CS)C(=O)NCC(=O)N[C@@H](Cc1ccc(O)cc1)C(=O)N[C@@H](CCCNC(=N)N)C(=O)NCC(=O)N[C@H](C(=O)N[C@@H](Cc1ccccc1)C(=O)N[C@@H](CS)C(=O)N[C@H](C(=O)N1CCC[C@H]1C(=O)NCC(=O)N[C@@H](CCCCN)C(=O)N[C@@H](CS)C(=O)N1CCC[C@H]1C(=O)N[C@@H](Cc1ccc(O)cc1)C(=O)NCC(=O)N[C@@H](CC(N)=O)C(=O)N[C@@H](C)C(=O)N[C@@H](Cc1ccc(O)cc1)C(=O)N[C@@H](CC(C)C)C(=O)NCC(=O)N[C@@H](CC(C)C)C(=O)N[C@@H](CS)C(=O)N[C@@H](CCCNC(=N)N)C(=O)N1CCC[C@H]1C(=O)N[C@@H](CCCCN)C(=O)N[C@@H](Cc1ccc(O)cc1)C(=O)N[C@@H](CO)C(=O)N[C@@H](CS)C(=O)N[C@@H](CS)C(=O)N[C@@H](CCCNC(=N)N)C(=O)N[C@@H](Cc1c[nH]c2ccccc12)C(=O)O)[C@@H](C)O)[C@@H](C)O [AvBD4] (H-RYHMQCGYRGTFCTPGKCPYGNAYLGLCRPKYSCCRW-OH; N-terminus and C-terminus assumed) |  |  |  | Antibacterial activity over the tested concentrations ([1]; listed as BD4): strongest activity among the three; Relative antibacterial effect among all tested chicken HDPs [1]: strongest antibacterial effect among all tested chicken HDPs; Relative antibacterial effect among all tested chicken HDPs ([1]; listed as β-defensin4): strongest antibacterial activity among all tested chicken HDPs |
| PIRNWWIRIWEWLNGIRKRLRQRSPFYVRGHLNVTSTPQP [CATB1] |  |  |  | Efficiency in reducing E. coli cell viability and damaging cell membranes (comparison among the CATHs) [1]: weak antibacterial activity compared to others; E. coli membrane damage (red fluorescence, LIVE/DEAD BacLight) (E. coli): greater with CATH2 or CATH3 than with CATH1 or CATHB1 |
| CC[C@H](C)[C@H](NC(=O)[C@H](C)NC(=O)[C@H](CC(=O)O)NC(=O)[C@H](CCC(=O)O)NC(=O)[C@H](CC(=O)O)NC(=O)[C@@H]1CCCN1)C(=O)N[C@@H](CC(N)=O)C(=O)N[C@@H](CC(N)=O)C(=O)N[C@@H](C)C(=O)N[C@@H](CC(C)C)C(=O)N[C@@H](CC(N)=O)C(=O)N[C@@H](CCCCN)C(=O)N[C@H](C(=O)N[C@@H](CS)C(=O)N[C@@H](CO)C(=O)N[C@H](C(=O)NCC(=O)N[C@@H](CCCNC(=N)N)C(=O)N[C@@H](CCCNC(=N)N)C(=O)N[C@@H](CCC(N)=O)C(=O)N[C@@H](CCCNC(=N)N)C(=O)N[C@@H](CO)C(=O)N[C@H](C(=O)N[C@@H](CS)C(=O)N[C@@H](CCCCN)C(=O)N[C@@H](CCC(N)=O)C(=O)N[C@@H](CC(C)C)C(=O)N[C@@H](CC(C)C)C(=O)N[C@@H](CCCCN)C(=O)N[C@@H](CCCCN)C(=O)O)[C@@H](C)CC)[C@@H](C)O)C(C)C [cNK3] (H-PDEDAINNALNKVCSTGRRQRSICKQLLKK-OH; N-terminus and C-terminus assumed) | very strong antibacterial activity at all concentration |  |  | Bacteria killed at 0.5 μM [1]: 50% |
| PDSCNHDRGLCRVGNCNPGEYLAKYCFEPVILLCCKPLSPTPTKT [AvBD12, synthetic linear peptide corresponding to chicken avian β-defensin 12] |  | very weak lytic activity | minimal killing activity |  |
| PVRVKRFWPLVPVAINTVAAGINLYKAIRRK [CATH3] | very strong antibacterial activity at all concentration |  |  | Bacteria killed at 0.5 μM [1]: 50%; Efficiency in reducing E. coli cell viability and damaging cell membranes (comparison among the CATHs) [1]: highest efficiency; E. coli membrane damage (red fluorescence, LIVE/DEAD BacLight) (E. coli): greater with CATH2 or CATH3 than with CATH1 or CATHB1 |
| GLPQDCERRGGFCSHKSCPPGIGRIGLCSKEDFCCRS [AvBD5, synthetic linear peptide corresponding to chicken avian β-defensin 5] |  | very weak lytic activity | minimal killing activity |  |
| PDTVACRTQGNFCRAGACPPTFTISGQCHGGLLNCCAKIPAQ [AvBD10, synthetic linear peptide corresponding to chicken avian β-defensin 10] |  | very weak lytic activity | minimal killing activity |  |
| NNEAQCEQAGGICSKDHCFHLHTRAFGHCQRGVPCCRTVYD [AvBD8, synthetic linear peptide corresponding to chicken avian β-defensin 8] |  | very weak lytic activity | minimal killing activity | Lethal dose (LD)50 against E.coli (E.coli): 27 µM |
